Source: US11832662B2, “Methods and devices for preventing viral transmission” (priority 2020, dated 2023)
Like-named read-outs stand apart in the source and are kept apart here.

What was measured:
HUVEC cells [1] = assay: EF-induced reorientation of endothelial cells (orientation index Oi); assay type: cell-based, human
Protocol: HUVEC cells were seeded in a trough formed by two parallel (1 cm apart) strips of glass coverslip (No. 1, length of 22 mm) fixed to the base of the dish with silicone grease. Scratch lines were made perpendicular to the long axis of the chamber with a fine sterile needle and used as reference marks for directed cell migration. Cells were incubated for 24-48 hours (37° C., 5% CO2) before a roof coverslip was applied and sealed with silicone grease. The final dimensions of the chamber, through which current was passed, were 22×10×0.2 mm. Agar-salt bridges not less than 15 cm long were used to connect silver/silver-chloride electrodes in beakers of Steinberg's solution (58 mM NaCl, 0.67 mM KCl, 0.44 mM Ca(NO3)2, 1.3 mM MgSO4, 4.6 mM Trizma base, pH 7.8-8.0), to pools of excess culture medium at either side of the chamber. Field strengths were measured directly at the beginning of, the end of and during each experiment. […] (50 μM), the Rho kinase inhibitor Y27632 (50 μM), both Akt and Rho kinase inhibitors (10 μM each) or latrunculin (50 nM) for 1 hour before EF stimulation. The same concentration of drug was present during EF exposure in a CO2 incubator.
A series of images was taken with an image analyser immediately before EF exposure and at 4, 8 and 24 hours of EF exposure. Cell orientation was quantified as an orientation index (Oi), which is defined as Oi=cos 2(α), where a is the angle formed by the long axis of a cell with a line drawn perpendicular to the field lines. A cell with its long axis parallel to the vector of the EF will have an Oi of −1, and a cell with its long axis exactly perpendicular to the EF vector will have an Oi of +1. A randomly oriented population of cells will have an average Oi {defined as [Σn cos 2(α)]÷n} of 0. The significance of this two-dimensional orientation distribution against randomness was calculated using Rayleigh's distribution. A long:short axis ratio was calculated for assessment of elongation.

[2] = system: HaCaT human keratinocytes; assay: Scratch assay, keratinocyte migration, Example 3; assay type: cell-based; settings: LLEC-treated cells, N-acetylcysteine 5 mM 1 h pretreatment, IGF-1R inhibitor picropodophyllin 50 nM
HUVEC cells [3] = assay: EF-induced elongation of endothelial cells (long:short axis ratio); assay type: cell-based, human; settings: versus control
Protocol: HUVEC cells were seeded in a trough formed by two parallel (1 cm apart) strips of glass coverslip (No. 1, length of 22 mm) fixed to the base of the dish with silicone grease. Scratch lines were made perpendicular to the long axis of the chamber with a fine sterile needle and used as reference marks for directed cell migration. Cells were incubated for 24-48 hours (37° C., 5% CO2) before a roof coverslip was applied and sealed with silicone grease. The final dimensions of the chamber, through which current was passed, were 22×10×0.2 mm. Agar-salt bridges not less than 15 cm long were used to connect silver/silver-chloride electrodes in beakers of Steinberg's solution (58 mM NaCl, 0.67 mM KCl, 0.44 mM Ca(NO3)2, 1.3 mM MgSO4, 4.6 mM Trizma base, pH 7.8-8.0), to pools of excess culture medium at either side of the chamber. Field strengths were measured directly at the beginning of, the end of and during each experiment. No fluctuations in field strength were observed. […] (50 μM), the Rho kinase inhibitor Y27632 (50 μM), both Akt and Rho kinase inhibitors (10 μM each) or latrunculin (50 nM) for 1 hour before EF stimulation. The same concentration of drug was present during EF exposure in a CO2 incubator.
A series of images was taken with an image analyser immediately before EF exposure and at 4, 8 and 24 hours of EF exposure. Cell orientation was quantified as an orientation index (Oi), which is defined as Oi=cos 2(α), where a is the angle formed by the long axis of a cell with a line drawn perpendicular to the field lines. A cell with its long axis parallel to the vector of the EF will have an Oi of −1, and a cell with its long axis exactly perpendicular to the EF vector will have an Oi of +1. […] The significance of this two-dimensional orientation distribution against randomness was calculated using Rayleigh's distribution. A long:short axis ratio was calculated for assessment of elongation.
HUVEC cells elongated dramatically in an EF. […] We quantified the elongation of the cells using a long:short axis ratio. […]

[4] = drug present 1 hour before and during EF exposure

Row | Molecule | orientation response of cells in an EF (HUVEC cells [1]; [4]) | long:short axis ratio / elongation response in EF-treated cells (HUVEC cells [3]) | further results
1 | COc1cc2ncnc(Nc3ccc(Cl)cc3F)c2cc1OC [VEGFR inhibitor, 4-[(4′-chloro-2′-fluoro)phenylamino]-6,7-dimethoxyquinazoline] | completely abolished |  | 
2 | CC(=O)N[C@@H](CS)C(=O)O [N-Acetyl Cysteine] |  |  | LLEC-increased keratinocyte migration in presence of blocker [2]: failed to reproduce the increased migration; LLEC-increased keratinocyte migration in presence of blocker ([2]; listed as N-acetyl cysteine): prevented
3 | C[C@@H](N)[C@H]1CC[C@H](C(=O)Nc2ccncc2)CC1 [Y27632] | decreased the orientation response significantly | significantly decreased | 
4 | C/C1=C/C(=O)O[C@@H]2C[C@@H](CC[C@H](C)/C=C\C=C\CC1)O[C@@](O)([C@@H]1CSC(=O)N1)C2 [Latrunculin A] | suppressed the orientation response significantly | completely abolished | 
5 | COc1cc([C@@H]2c3cc4c(cc3[C@H](O)[C@H]3COC(=O)[C@@H]23)OCO4)cc(OC)c1OC [IGF-1R inhibitor, picropodophyllin] |  |  | LLEC-increased keratinocyte migration in presence of blocker [2]: attenuated the increased keratinocyte migration
6 | 1-L-6-hydroxymethyl-chiro-inositol 2-[(R)-2-O-methyl-3-O-octadecylcarbonate] [Akt inhibitor] | significantly decreased | significantly decreased | 
7 | N#CC(=C(/N)Sc1ccccc1N)/C(C#N)=C(\N)Sc1ccccc1N [U0126] |  |  | orientation index Oi (HUVEC cells [1]): 0.33±0.03; orientation response of cells in an EF (HUVEC cells [1]): decreased the orientation to a similar extent
